Laboratory results as given in patent US9320280B2, “Methods and compositions for deterring feeding/repelling the brown marmorated stink bug (BMSB), Halyomorpha halys” (The United States of America, as Represented by the …, priority 2012, dated 2016).
“Also recorded” adds a separate entry of the source.

Experiments:
Halyomorpha halys [1] = assay: Optimized closed-air petri dish bioassay: feeding deterrence on green beans; format: in vivo; set-up: key to significance of repelling insect from treated bean relative to pentane control: p<0.05 (*); p<0.01 (**); p<0.001 (***); n.s.: compound tested was not significant in repelling insect from treated bean; details: for overall repellent effectiveness (conclusion): all age groups and sexes of H. halys
Experimental: Optimized petri dish bioassays: Insects tested were moved in groups from Thermo Forma cages to plastic petri dishes for food and water deprivation 16-20 hours before bioassays. Adults were separated by age and sex and held in groups of five, nymphs were held in groups of 20. Bioassays were conducted from April-June of 2012 between 8 a.m. and 4 p.m., in a fume hood lined with black paper and covered with black curtain to prevent external visual stimuli. The fume hood was illuminated by a single 60 watt light bulb with a light intensity of 800 LUX, placed 50 cm above bio assay arenas, with 26°-28° C. temperature and 50% relative humidity. Glass petri dishes (10 cm diameter) were used for the bioassay arena and were lined with Whatman's #1 filter paper (9 cm) that was changed before each assay. Adults were bioassayed individually. Nymphs were tested in groups of four because in preliminary assays they were observed continually walking for up to four hours unless conspecifics were present.
We then used the optimized solvent (i.e., pentane) to test the effects of different repellents on deterring H. halys feeding on organic green beans in petri dishes. Insects were tested in a glass Petri dish for their attraction/aversion to 1 μg and 100 μg concentrations of isolongifolanone and isolongifolenone (International Flavors and Fragrances, NY), C-13, and E-2-decenal, diluted in pentane. Pure pentane was tested as a control. Whatman's #1 filter paper (9 cm) was placed in petri dish and 2× one-inch diameter impressions were made with a metal circle. One circle was treated with 75 ul of pentane (control) and the other with pentane+repellant (treatment) and dried for five minutes. One-inch sections of organic green beans were placed over the treated or untreated circle. Starved insects were introduced to the petri dish assay arena and observed at three time points in 45 minute increments for 2.25 hours. Their location was recorded as feeding with stylet inserted on the treatment (i.e., odor) bean, blank bean, or off bean (i.e., walking off of food source or no movement in petri dish and not on bean). Individuals were only used for one bioassay at the adult or nymphal stage in their lifetime. Petri dishes were rinsed with water daily and baked overnight at 100° C., and were rinsed with acetone after every six uses.
Optimized petri dish bioassays were analyzed for each age group, sex, and treatment using Likelihood Ratio tests (JMP®). Percent response for each choice per compound was averaged over the three time periods observed. The likelihood of the three choices was set to the level determined by the pentane control for each age/sex group, and the confidence interval set at 95%. P-values are indicated as follows: *=0.05; **=0.01; ***=0.001.

Halyomorpha halys [2] = assay: Open-air small cage bioassay: feeding deterrence/repellency on treated peaches and apples; format: in vivo; details: open-air system
Experimental: Small Cage Bioassays: Nymphs and adults were tested for effects of feeding deterrents/repellents from islongifolanone, islongifolenone, C-13, and E-2-decenal applied to organic peaches and gala apples in a small cage. Insects were starved for 16 hours prior to experiments before being transferred in groups of 15 (nymphs) or 10 (adults male or female) to two gallon containers containing one treated fruit, and observed hourly for the number of nymphs on the fruit. Experiments were conducted in a fume hood under the same light and heat conditions as above. Different concentrations of isolongifolanone, isolongifolenone, C-13, and E-2-decenal were tested both individually and combined (equal amount of each component), with a final concentration of 70-80 mg/fruit chosen as an effective treatment. Compounds (400 mg) were combined with the emulsifier Tween-80 (2 mg), mixed with water (H2O 10 ml) in glass vial (20 ml), and sonicated for 20 min. The solution containing emulsifier Tween-80 (2 mg) in 10 ml water was used as control. […]
Small cage bioassays were analyzed by replicate, treatment, and time using repeated measures ANOVA and multiple comparisons for treatments were tested using Tukeys HSD, Model: Nymphs on Fruit=Treatment, Rep (Treatment), Time, Treatment*Time.

Halyomorpha halys [3] = details: for feeding on solvent-treated versus untreated green bean: starved adult males ages 3-7 days, 35 μl of solvent on 1-inch section of green bean
Experimental: We tested the effects of solvent on H. halys survival and feeding behavior to optimize the solvent used in petri dish assays. Mortality of 3rd stage nymphs, and adult males and females (ages 3-7 days or 13-23 days into adult stage), was quantified as the percentage of individuals who died after exposure to methylene chloride (DCM) after 2.25 hours. […] Insects were starved for 16-20 hours prior to being exposed to 1 inch cut sections of organic green beans in a 10 cm petri covered glass petri dish. One bean was coated with […] solvent while the other was untreated. Behaviors of young adult male individuals were recorded at three time points (45, 90, and 135 minutes) as feeding on the blank (untreated) bean, feeding on the odor (solvent-treated) bean, or sitting on the wall of the petri dish. Percent response for each choice was averaged over the three time periods.

[4] = Nymph (3rd stage), starved, 1 μg in pentane on filter paper under green bean
[5] = Nymph (3rd stage), starved, 100 μg in pentane on filter paper under green bean
[6] = Old Adult Male (13-23 days), 1 μg
[7] = Old Adult Male (13-23 days), 100 μg
[8] = Young Adult Male (3-7 days), 1 μg
[9] = Young Adult Male (3-7 days), 100 μg
[10] = starved nymphs (3rd stage), 1 μg, FIG. 6A
[11] = starved nymphs (3rd stage), 100 μg, FIG. 6A
[12] = young adult males (3-7 days), 100 μg, FIG. 6B
[13] = old adult females, 100 μg, FIG. 6E
[14] = young adult females, 100 μg, FIG. 6C

Compound	significance of repelling insect from treated bean relative to pentane control (Halyomorpha halys [1]; [4])	significance of repelling insect from treated bean relative to pentane control (Halyomorpha halys [1]; [5])	significance of repelling insect from treated bean relative to pentane control (Halyomorpha halys [1]; Old Adult Female, 1 μg)	significance of repelling insect from treated bean relative to pentane control (Halyomorpha halys [1]; Old Adult Female, 100 μg)	significance of repelling insect from treated bean relative to pentane control (Halyomorpha halys [1]; [6])	significance of repelling insect from treated bean relative to pentane control (Halyomorpha halys [1]; [7])	significance of repelling insect from treated bean relative to pentane control (Halyomorpha halys [1]; Young Adult Female, 1 μg)	significance of repelling insect from treated bean relative to pentane control (Halyomorpha halys [1]; Young Adult Female, 100 μg)	significance of repelling insect from treated bean relative to pentane control (Halyomorpha halys [1]; [8])	significance of repelling insect from treated bean relative to pentane control (Halyomorpha halys [1]; [9])	likelihood to feed on treated green bean (in words) (Halyomorpha halys [1]; [11])	likelihood to feed on treated green bean (in words) (Halyomorpha halys [1]; [12])	repellency/deterrence across age groups and sexes (summary of Table 1) (Halyomorpha halys [1]; 100 μg concentration)	feeding on solvent-treated versus untreated green bean (Halyomorpha halys [3])	further results
CCCCCCCCCCCCC [C-13, tridecane]	*** (p<0.001 (***))	** (p<0.01 (**))	n.s.	n.s.	n.s.	* (p<0.05 (*))	n.s.	n.s.	n.s.	* (p<0.05 (*))	significantly less likely to feed	significantly less likely to feed	–	–	repellency/deterrence across age groups and sexes (summary) (Halyomorpha halys [1]; concentration not given, diluted in pentane): deterrent to young males and old adult males and nymphs; also recorded: deterred H. halys feeding; likelihood to feed on treated green bean (in words) (Halyomorpha halys [1]; old adult males (13-23 days), 1 μg, FIG. 6D): significantly less likely to feed; likelihood to feed on treated green bean (in words) (Halyomorpha halys [1]; [10]): significantly less likely to feed; repellency in small cage tests compared with petri dish (Halyomorpha halys [2]): decreased repellency
CCCCCCC/C=C/C=O [E-2-decenal]	** (p<0.01 (**))	n.s.	n.s.	* (p<0.05 (*))	n.s.	* (p<0.05 (*))	n.s.	n.s.	** (p<0.01 (**))	n.s.	–	–	effective at deterring old adult males	–	repellency/deterrence across age groups and sexes (summary of Table 1) (Halyomorpha halys [1]; 1 μg): effective at deterring Nymphs, young adult males, and old adult females; likelihood to feed on treated green bean (in words) (Halyomorpha halys [1]; young adult males (3-7 days), 1 μg, FIG. 6B): significantly less likely to feed
CC(C)=O [acetone]	–	–	–	–	–	–	–	–	–	–	–	–	–	significantly less likely to feed	–
CCO [ethanol]	–	–	–	–	–	–	–	–	–	–	–	–	–	Less feeding aversion	–
CCCCCC [hexane]	–	–	–	–	–	–	–	–	–	–	–	–	–	significantly less likely to feed	–
CC1(C)C2=CC(=O)CC(C)(C)[C@]23CC[C@H]1C3 [isolongifolenone]	*** (p<0.001 (***))	** (p<0.01 (**))	n.s.	* (p<0.05 (*))	n.s.	n.s.	n.s.	*** (p<0.001 (***))	n.s.	*** (p<0.001 (***))	significantly less likely to feed	significantly less likely to feed	deterring all groups except for old adult males	–	overall repellent effectiveness (conclusion) (Halyomorpha halys [1]): highly effective repellents; likelihood to feed on treated green bean (in words) (Halyomorpha halys [1]; [13]): significantly less likely to feed; also recorded: deterred; likelihood to feed on treated green bean (in words) (Halyomorpha halys [1]; [10]): significantly less likely to feed; likelihood to feed on treated green bean (in words) (Halyomorpha halys [1]; [14]): significantly less likely to feed; also recorded: deterred
ClCCl [methylene chloride (DCM), methylene chloride]	–	–	–	–	–	–	–	–	–	–	–	–	–	significantly less likely to feed	mortality (susceptibility) after exposure to solvent (Halyomorpha halys [3]; 3rd stage nymphs, adult males and females, after 2.25 hours): young adult males were the most susceptible
CCCCC [pentane]	–	–	–	–	–	–	–	–	–	–	–	–	–	slight preference for pentane-treated green beans over the untreated control bean	–
isolongifolanone	–	*** (p<0.001 (***))	–	*** (p<0.001 (***))	–	*** (p<0.001 (***))	–	*** (p<0.001 (***))	–	*** (p<0.001 (***))	significantly less likely to feed	significantly less likely to feed	significantly repellent to all age groups and sexes	–	overall repellent effectiveness (conclusion) (Halyomorpha halys [1]): highly effective repellents; likelihood to feed on treated green bean (in words) (Halyomorpha halys [1]; [13]): significantly less likely to feed; also recorded: deterred; likelihood to feed on treated green bean (in words) (Halyomorpha halys [1]; old adult males (13-23 days), 100 μg, FIG. 6D): significantly less likely to feed; likelihood to feed on treated green bean (in words) (Halyomorpha halys [1]; [14]): significantly less likely to feed; also recorded: deterred
